The values that follow are results of earlier work, collected in patent US7547776B1, “Process for the production of fludarabine-phosphate lithium, sodium, potassium, calcium and magnesium salts and purification process for the production of fludarabine-phosphate and fludarabine-phosphate with a purity of at least 99.5%” (Bayer Schering Pharma Aktiengesellschaft, priority 1997, dated 2009).

Each structure is given as a SMILES string.

For the data set the following is noted: in water at approximately 75° C. (recrystallization).

In the case of `Nc1nc(F)nc2c1ncn2[C@@H]1O[C@H](COP(=O)(O)O)[C@@H](O)[C@@H]1O` [fludarabine-phosphate, 9-β-D-arabinofuranosyl-2-fluoroadenine-5′-O-dihydrogenphosphate], the “thermal stability in water” value is on record as “thermally unstable”.
